Experiments:
[1] = molecular target: T1, endogenous Factor XIII in plasma (Plasma FXIIIa) (Homo sapiens, UniProt P00488); test: Inactivation of endogenous Factor XIII in plasma; format: biochemical; conditions: citrated plasma, thrombin-activated, 5 min at 37° C.
T1 construct: from tissue; host or cells: citrated plasma (desensitized by heating)
T1 sequence (P00488 39-732 limits assumed): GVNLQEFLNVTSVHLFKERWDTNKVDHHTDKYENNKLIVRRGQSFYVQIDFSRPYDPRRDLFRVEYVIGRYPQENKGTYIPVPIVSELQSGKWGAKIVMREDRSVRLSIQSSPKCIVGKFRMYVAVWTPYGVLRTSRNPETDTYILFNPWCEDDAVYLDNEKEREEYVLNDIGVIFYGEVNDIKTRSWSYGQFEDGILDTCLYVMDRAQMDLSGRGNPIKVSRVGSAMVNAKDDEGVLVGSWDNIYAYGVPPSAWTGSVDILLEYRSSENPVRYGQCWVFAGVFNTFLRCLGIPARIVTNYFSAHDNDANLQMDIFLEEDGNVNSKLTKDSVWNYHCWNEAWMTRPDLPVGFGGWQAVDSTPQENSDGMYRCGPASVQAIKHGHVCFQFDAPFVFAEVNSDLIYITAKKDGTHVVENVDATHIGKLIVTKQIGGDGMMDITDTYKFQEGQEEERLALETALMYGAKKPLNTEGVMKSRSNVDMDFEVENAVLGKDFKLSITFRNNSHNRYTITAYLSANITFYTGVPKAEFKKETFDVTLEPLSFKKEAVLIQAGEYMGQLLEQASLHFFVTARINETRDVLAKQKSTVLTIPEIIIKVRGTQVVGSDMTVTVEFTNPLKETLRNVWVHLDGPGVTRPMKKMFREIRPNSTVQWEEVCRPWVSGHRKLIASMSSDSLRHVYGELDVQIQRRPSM
Method: Citrated plasma (0.235 mL) was “desensitized” by heating with ethylene glycol monomethyl ether (0.235 mL, 20% solution in water) in a glass test tube at 56° C. for 4 min., as described by Lorand (Lorand, L.; Lockridge, O. M.; Campbell, L. K.; Myhrman, R.; Bruner-Lorand, J. Anal.Biochem. 1971, 44, 221-231). After cooling to 37° C., calcium chloride (20 μL, 0.4 M in 50 mM Tris-HCl pH 7.5) and inhibitor solution in 50% glycerol (59 μL) were added. Bovine thrombin (30 NIH units in 118 μL of 50 mM Tris-HCl pH 7.5 containing 20 mM CaCl2) was added and the mixture was incubated at 37° C. for 5 min.
An assay mixture composed of 0.1 M sodium borate, pH 9.0, 0.3% ethylene glycol monomethyl ether, 32 μM monodansylcadaverine, 10 mM CaCl2 and 0.08% dimethyl casein in a final volume of 1.263 mL was prepared in a spectrofluorometric cell and incubated at 37° C. for a few minutes. To assay the residual enzyme activity, 567 μL of the plasma solution was transferred to the assay mixture. The covalent incorporation of monodansylcadaverine into casein was monitored by an increase in fluorescence at λex=360 nm and λem=500 nm, as previously described (Curtis, C. G.; Lorand, L. Methods Enzymol. 1976, 45, 177-191). To determine uninhibited enzyme activity, inhibitor solution was replaced by 50% glycerol. IC50 values (inhibitor concentration resulting in 50% enzyme inactivation) were determined by plotting the percent of remaining enzyme activity against logarithm of inhibitor concentration.

[2] = molecular target: T2, Factor XIIIa (activated FXIII) (Homo sapiens, UniProt P00488); test: Inactivation of purified Factor XIIIa (monodansylcadaverine incorporation into dimethylcasein, fluorescence); format: biochemical; conditions: purified activated FXIII; 50% enzyme inactivation after 5-min incubation with inhibitor at 37° C. in the absence of substrate; read-out: FXIIIa (IC50 in μM)
T2 construct: purchased Enzyme Research Laboratories, Ltd
T2 sequence (P00488 39-732 limits assumed): T1 sequence (P00488 39-732 limits assumed)
Method: FXIII (0.5 mg/mL, Enzyme Research Laboratories, Ltd.) in 50 mM Tris-HCl pH 7.5 containing 100 mM NaCl, 40 mM CaCl2, 1 mM EDTA and 0.1% poly(ethylene glycol) (app. MW=8000) was activated by incubation with 10 NIH units/mL of human thrombin (Calbiochem) at 37° C. for 20 min. Thrombin was quenched with 20 NIH units/mL of hirudin from Leech (Sigma).
Inhibitor solution in DMSO (14 μL) was added to 120 μL of 250 mM Tris-Cl pH 7.5 containing 40 mM CaCl2 and 1 mM EDTA and the solution was incubated at 37° C. for two minutes. Activated FXIII (5 μL, 0.5 mg/mL) was added and the mixture was incubated at 37° C. for 5 min.
An assay mixture composed of 50 mM Tris-Cl pH 8.0, 10 mM CaCl2, 1 mM EDTA, 0.1% poly(ethylene glycol) (app. MW=1000) and 20 μM monodansylcadaverine was prepared in a spectrofluorometric cell in a final volume of 2880 μL. Dimethylcasein (8 μL, 1% in 50 mM sodium phosphate pH 7.5) was added and the solution was incubated at 37° C. for a few minutes. To assay the residual enzyme activity, 120 μL of the solution containing the enzyme and the inhibitor was transferred to the assay mixture. The covalent incorporation of monodansylcadaverine into casein was monitored by an increase in fluorescence at λexc=360 nm and λem=500 nm as previously described (Curtis, C. G.; Lorand, L. Methods Enzymol. 1976, 45, 177-191). To determine uninhibited enzyme activity, DMSO was used in place of inhibitor solution in the above assay. IC50 were determined by plotting the percent of remaining enzyme activity against logarithm of inhibitor concentration. IC50 is defined here as an inhibitor concentration resulting in 50% enzyme inactivation after 5-min incubation of the enzyme with the inhibitor in the absence of the substrate. Second order rate constants for inactivation were determined using method described by Kitz and Wilson (Kitz, R.; Wilson, I. J. Biol. Chem. 1962, 237, 3245).

Compound	IC50 [1] [µM]	melting point [°C]	IC50 [2] [µM]
CN(C)c1cccc2c(S(=O)(=O)NCCCCCNc3nsc4nccn34)cccc12 [1 / 5-Me2N-1-naphthyl, 5-(Dimethylamino)-N-[5-(imidazo[1,2-d][1,2,4]thiadiazol-3-ylamino)pentyl]naphthalene-1-sulfonamide]	7.1		
CS(=O)(=O)NCCCCCCNc1nsc2nccn12 [2 / CH3, N-[6-(Imidazo[1,2-d][1,2,4]thiadiazol-3-ylamino)hexyl]methanesulfonamide]	38		
O=C(O)CCN(CCCCCCNc1nsc2nccn12)S(=O)(=O)c1ccc(F)cc1F [2 / OH / 2-F-4-F-Ph, N-[(2,4-difluorophenyl)sulfonyl]-N-[6-(imidazo[1,2-d][1,2,4]thiadiazol-3-ylamino)hexyl]-β-alanine]		97 to 100	5.2
Cc1c(Cl)cccc1S(=O)(=O)NCCCCCCNc1nsc2nccn12 [2-Me-3-Cl-Ph, 3-chloro-N-[6-(imidazo[1,2-d][1,2,4]thiadiazol-3-ylamino)hexyl]-2-methylbenzenesulfonamide]		151 to 153	1.3
Cc1ccc(F)cc1S(=O)(=O)NCCCCCCNc1nsc2nccn12 [2-Me-5-F-Ph, 5-fluoro-N-[6-(imidazo[1,2-d][1,2,4]thiadiazol-3-ylamino)hexyl]-2-methylbenzenesulfonamide]		140 to 142	10
Nc1ccccc1S(=O)(=O)NCCCCCCNc1nsc2nccn12 [2-NH2-Ph, 2-amino-N-[6-(imidazo[1,2-d][1,2,4]thiadiazol-3-ylamino)hexyl]benzenesulfonamide]		138 to 139	2
O=[N+]([O-])c1ccccc1S(=O)(=O)NCCCCCCNc1nsc2nccn12 [H / H / 2-NO2-Ph, N-[6-(imidazo[1,2-d][1,2,4]thiadiazol-3-ylamino)hexyl]-2-nitrobenzenesulfonamide]		113.7 to 114.6	

Source: patent publication US20030225007A1, “Sulfonamide derivatives of 3-substituted imidazol[1,2-d]-1,2,4-thiadiazoles and 3-substituted-[1,2,4] thiadiazolo[4,5-a] benzimidazole as inhibitors of fibrin cross-linking and transglutaminases” (Apotex Inc., priority 2002, published 2003)
